Blank lines part the entries; values can stand above or below the compound they belong to. The source made the active and inactive calls. No cut-off for these calls is given here.
Key:
[1] = target: T1, Nischarin (Rattus norvegicus, UniProt Q4G017); assay: Displacement of [125I]PIC from Imidazoline-1 receptor in rat PC12 cell membrane by gamma counting method; format: cell membranes, PC-12
[2] = tested on: K562; assay: Antiproliferative activity against human K562 cells assessed as inhibition of cell survival after 48 hrs by MTT assay; format: functional, cell-based; conditions: K562, 48 h
[3] = target: T2, Alpha-2A adrenergic receptor (Homo sapiens, UniProt P08913); assay: Intrinsic activity at recombinant human alpha2A adrenoreceptor expressed in CHOK1 cell membrane incubated for 30 mins by [35S]GTPgammaS binding assay relative to adrenaline; format: cell membranes; conditions: CHO-K1, human, 0.5 h; read-out: Intrinsic activity
T2 sequence (P08913 whole entry): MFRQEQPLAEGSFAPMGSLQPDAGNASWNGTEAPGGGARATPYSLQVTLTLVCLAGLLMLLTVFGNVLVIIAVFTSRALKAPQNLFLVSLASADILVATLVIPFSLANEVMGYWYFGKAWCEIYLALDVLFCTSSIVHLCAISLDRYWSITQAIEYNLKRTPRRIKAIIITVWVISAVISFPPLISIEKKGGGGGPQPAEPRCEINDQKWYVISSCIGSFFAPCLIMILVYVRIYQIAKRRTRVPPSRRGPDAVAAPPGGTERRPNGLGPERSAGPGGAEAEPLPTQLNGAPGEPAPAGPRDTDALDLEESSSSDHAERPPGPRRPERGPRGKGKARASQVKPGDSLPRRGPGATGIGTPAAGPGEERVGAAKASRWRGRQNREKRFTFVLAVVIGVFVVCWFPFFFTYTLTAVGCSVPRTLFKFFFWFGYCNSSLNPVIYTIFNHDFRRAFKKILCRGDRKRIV

[4] = tested on: K562; assay: Induction of apoptosis in human K562 cells assessed as early apoptotic cells at 300 uM up to 48 hrs by Annexin V-FITC/propidium iodide staining based flow cytometry; format: functional, cell-based
[5] = target: T2, Alpha-2A adrenergic receptor; assay: Displacement of [3H]RS-79948-197 from recombinant human alpha2A adrenoreceptor expressed in CHOK1 cell membrane by scintillation counting method; format: cell membranes, CHO-K1; conditions: read-out: Ki(app)
[6] = tested on: K562; assay: Cell cycle arrest in human K562 cells assessed as accumulation at G2/M phase at 70 uM after 48 hrs by propidium iodide staining based flow cytometry (reference value: 26%); format: functional
[7] = tested on: K562; assay: Cell cycle arrest in human K562 cells assessed as accumulation at G0/G1 phase at 70 uM after 48 hrs by propidium iodide staining based flow cytometry (reference value: 42%); format: functional
[8] = tested on: K562; assay: Cell cycle arrest in human K562 cells assessed as accumulation at S phase at 70 uM after 48 hrs by propidium iodide staining based flow cytometry (reference value: 29%); format: functional
[9] = tested on: K562; assay: Cell cycle arrest in human K562 cells assessed as accumulation at sub-G1 phase at 70 uM after 48 hrs by propidium iodide staining based flow cytometry (reference value: 3%); format: functional
[10] = tested on: K562; assay: Induction of apoptosis in human K562 cells assessed as early apoptotic cells at 70 uM after 48 hrs by Annexin V-FITC/propidium iodide staining based flow cytometry (reference value: 5%); format: functional
[11] = tested on: K562; assay: Antiproliferative activity against human K562 cells at 70 uM after 24 hrs by clonogenic assay relative to control; format: functional; conditions: K562, 24 h, read-out: GI
[12] = tested on: K562; assay: Inhibition of colony formation in human K562 cells after 24 hrs by clonogenic assay; format: functional, cell-based
[13] = tested on: K562; assay: Induction of apoptosis in human K562 cells assessed as late apoptotic cells at 70 uM after 48 hrs by Annexin V-FITC/propidium iodide staining based flow cytometry (reference value: 1%); format: functional
[14] = tested on: K562; assay: Induction of apoptosis in human K562 cells assessed as necrotic cells at 70 uM after 48 hrs by Annexin V-FITC/propidium iodide staining based flow cytometry (reference value: 1%); format: functional
[15] = tested on: K562; assay: Potentiation of doxorubicin-induced apoptosis in human K562 cells assessed as early apoptotic cells at 70 uM after 48 hrs by Annexin V-FITC/propidium iodide staining based flow cytometry (reference value: 5%); format: functional
[16] = tested on: K562; assay: Potentiation of doxorubicin-induced apoptosis in human K562 cells assessed as late apoptotic cells at 70 uM after 48 hrs by Annexin V-FITC/propidium iodide staining based flow cytometry (reference value: 1%); format: functional
[17] = tested on: K562; assay: Potentiation of doxorubicin-induced apoptosis in human K562 cells assessed as necrotic cells at 70 uM after 48 hrs by Annexin V-FITC/propidium iodide staining based flow cytometry (reference value: 1%); format: functional
[18] = target: Proto-oncogene tyrosine-protein kinase Src (Homo sapiens) (UniProt P12931); assay: Inhibition of recombinant human N-terminal poly His/GST-tagged SRC expressed in baculovirus infected insect cells using KVEKIGEGTYGVVYK peptide substrate assessed as residual activity at 100 uM by [gamma32P]ATP filter binding assay relative to control
Sequence of Proto-oncogene tyrosine-protein kinase Src (Homo sapiens) (P12931 2-536 limits assumed): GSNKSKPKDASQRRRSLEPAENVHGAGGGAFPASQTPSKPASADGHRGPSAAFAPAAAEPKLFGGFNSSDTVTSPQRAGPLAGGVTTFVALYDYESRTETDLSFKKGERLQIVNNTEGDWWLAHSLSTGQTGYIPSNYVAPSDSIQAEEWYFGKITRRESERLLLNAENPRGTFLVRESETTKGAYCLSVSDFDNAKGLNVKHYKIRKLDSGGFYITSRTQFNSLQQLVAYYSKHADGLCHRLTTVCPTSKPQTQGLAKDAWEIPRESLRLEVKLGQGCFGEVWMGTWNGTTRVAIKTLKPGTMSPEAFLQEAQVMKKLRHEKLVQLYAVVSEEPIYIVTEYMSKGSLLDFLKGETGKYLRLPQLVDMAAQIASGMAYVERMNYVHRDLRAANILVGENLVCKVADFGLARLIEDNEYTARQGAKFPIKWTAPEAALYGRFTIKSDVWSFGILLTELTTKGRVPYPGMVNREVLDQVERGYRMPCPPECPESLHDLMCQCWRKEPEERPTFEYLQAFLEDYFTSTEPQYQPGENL

[19] = target: Proto-oncogene tyrosine-protein kinase Src (Homo sapiens) (UniProt P12931); assay: Inhibition of recombinant human N-terminal poly His/GST-tagged SRC expressed in baculovirus infected insect cells using KVEKIGEGTYGVVYK peptide substrate assessed as residual activity at 100 uM in presence of NP40 by [gamma32P]ATP filter binding assay relative to control
[20] = target: Tyrosine-protein kinase ABL1 (Homo sapiens) (UniProt P00519); assay: Inhibition of recombinant human N-terminal His-tagged ABL expressed in baculovirus infected sf9 cells using abtide as substrate assessed as residual activity at 100 uM by [gamma32P]ATP filter binding assay relative to control
Sequence of Tyrosine-protein kinase ABL1 (Homo sapiens) (P00519 whole entry): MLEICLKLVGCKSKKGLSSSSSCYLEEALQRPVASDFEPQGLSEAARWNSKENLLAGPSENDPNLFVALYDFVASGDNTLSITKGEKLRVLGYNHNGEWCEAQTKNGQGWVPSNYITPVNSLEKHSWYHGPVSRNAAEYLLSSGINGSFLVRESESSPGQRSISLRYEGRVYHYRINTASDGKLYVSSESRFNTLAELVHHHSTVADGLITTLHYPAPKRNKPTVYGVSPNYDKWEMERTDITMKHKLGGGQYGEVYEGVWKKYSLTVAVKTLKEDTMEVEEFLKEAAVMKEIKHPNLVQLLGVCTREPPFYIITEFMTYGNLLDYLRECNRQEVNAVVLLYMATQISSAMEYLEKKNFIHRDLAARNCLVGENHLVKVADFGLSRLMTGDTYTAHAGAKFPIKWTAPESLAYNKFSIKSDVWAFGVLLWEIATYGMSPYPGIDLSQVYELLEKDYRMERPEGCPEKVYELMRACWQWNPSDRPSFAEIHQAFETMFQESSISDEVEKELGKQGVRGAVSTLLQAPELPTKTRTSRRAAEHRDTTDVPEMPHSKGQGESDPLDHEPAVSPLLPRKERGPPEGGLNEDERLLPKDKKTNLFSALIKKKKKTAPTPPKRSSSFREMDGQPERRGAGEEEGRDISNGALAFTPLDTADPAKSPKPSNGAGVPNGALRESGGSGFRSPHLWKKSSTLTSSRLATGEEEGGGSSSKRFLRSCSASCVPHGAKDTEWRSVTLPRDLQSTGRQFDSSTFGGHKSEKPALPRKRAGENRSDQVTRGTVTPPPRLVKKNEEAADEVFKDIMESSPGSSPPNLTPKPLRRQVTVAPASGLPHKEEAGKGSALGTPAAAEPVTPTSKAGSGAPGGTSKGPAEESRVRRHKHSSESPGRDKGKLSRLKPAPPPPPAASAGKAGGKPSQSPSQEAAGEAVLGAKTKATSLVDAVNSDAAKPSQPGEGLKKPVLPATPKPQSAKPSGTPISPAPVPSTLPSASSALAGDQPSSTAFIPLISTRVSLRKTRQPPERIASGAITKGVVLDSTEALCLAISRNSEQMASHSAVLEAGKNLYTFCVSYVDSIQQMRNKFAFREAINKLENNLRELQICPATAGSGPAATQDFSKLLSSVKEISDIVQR

[21] = target: Tyrosine-protein kinase ABL1 (Homo sapiens) (UniProt P00519); assay: Inhibition of recombinant human N-terminal His-tagged ABL expressed in baculovirus infected sf9 cells using abtide as substrate assessed as residual activity at 100 uM in presence of NP40 by [gamma32P]ATP filter binding assay relative to control
[22] = tested on: K562; assay: Potentiation of doxorubicin-mediated cell cycle arrest in human K562 cells assessed as decrease in G2/M cell population after 48 hrs by propidium iodide staining based flow cytometry; format: functional
[23] = tested on: K562; assay: Potentiation of doxorubicin-mediated cell cycle arrest in human K562 cells assessed as increase in sub-G1 cell population after 48 hrs by propidium iodide staining based flow cytometry; format: functional
[24] = tested on: K562; assay: Potentiation of 0.36 uM doxorubicin-induced cytotoxicity in human K562 cells assessed as inhibition of cell survival at 25 uM after 48 hrs by MTT assay relative to control; format: functional
[25] = tested on: K562; assay: Potentiation of 0.7 uM doxorubicin-induced cytotoxicity in human K562 cells assessed as inhibition of cell survival at 50 uM after 48 hrs by MTT assay relative to control; format: functional
[26] = tested on: K562; assay: Potentiation of 1 uM doxorubicin-induced cytotoxicity in human K562 cells assessed as inhibition of cell survival at 70 uM after 48 hrs by MTT assay relative to control; format: functional
[27] = tested on: K562; assay: Potentiation of 1.4 uM doxorubicin-induced cytotoxicity in human K562 cells assessed as inhibition of cell survival at 100 uM after 48 hrs by MTT assay relative to control; format: functional
[28] = tested on: K562; assay: Potentiation of 0.36 uM doxorubicin-induced cytotoxicity in human K562 cells assessed as combination index at 25 uM after 48 hrs by MTT assay relative to control; format: functional
[29] = tested on: K562; assay: Potentiation of 0.7 uM doxorubicin-induced cytotoxicity in human K562 cells assessed as combination index at 50 uM after 48 hrs by MTT assay relative to control; format: functional
[30] = tested on: K562; assay: Potentiation of 1 uM doxorubicin-induced cytotoxicity in human K562 cells assessed as combination index at 70 uM after 48 hrs by MTT assay relative to control; format: functional
[31] = tested on: K562; assay: Potentiation of 1.4 uM doxorubicin-induced cytotoxicity in human K562 cells assessed as combination index at 100 uM after 48 hrs by MTT assay relative to control; format: functional
[32] = Displacement of [3H]-clonidine from Imidazoline-1 receptor in bovine chromaffin cell membranes incubated for 40 mins in presence of RX821002; parameters: species or system Bos taurus
[33] = Displacement of [3H]-clonidine from Imidazoline-1 receptor in bovine adrenal medullary plasma membrane incubated for 40 mins in presence of RX821002; parameters: species or system Bos taurus
[34] = target: T1, Nischarin; assay: Displacement of [125I]PIC from Imidazoline-1 receptor in rat PC12 cell membrane incubated for 30 mins by gamma counting method; format: cell membranes, PC-12

T1 sequence (Q4G017 whole entry): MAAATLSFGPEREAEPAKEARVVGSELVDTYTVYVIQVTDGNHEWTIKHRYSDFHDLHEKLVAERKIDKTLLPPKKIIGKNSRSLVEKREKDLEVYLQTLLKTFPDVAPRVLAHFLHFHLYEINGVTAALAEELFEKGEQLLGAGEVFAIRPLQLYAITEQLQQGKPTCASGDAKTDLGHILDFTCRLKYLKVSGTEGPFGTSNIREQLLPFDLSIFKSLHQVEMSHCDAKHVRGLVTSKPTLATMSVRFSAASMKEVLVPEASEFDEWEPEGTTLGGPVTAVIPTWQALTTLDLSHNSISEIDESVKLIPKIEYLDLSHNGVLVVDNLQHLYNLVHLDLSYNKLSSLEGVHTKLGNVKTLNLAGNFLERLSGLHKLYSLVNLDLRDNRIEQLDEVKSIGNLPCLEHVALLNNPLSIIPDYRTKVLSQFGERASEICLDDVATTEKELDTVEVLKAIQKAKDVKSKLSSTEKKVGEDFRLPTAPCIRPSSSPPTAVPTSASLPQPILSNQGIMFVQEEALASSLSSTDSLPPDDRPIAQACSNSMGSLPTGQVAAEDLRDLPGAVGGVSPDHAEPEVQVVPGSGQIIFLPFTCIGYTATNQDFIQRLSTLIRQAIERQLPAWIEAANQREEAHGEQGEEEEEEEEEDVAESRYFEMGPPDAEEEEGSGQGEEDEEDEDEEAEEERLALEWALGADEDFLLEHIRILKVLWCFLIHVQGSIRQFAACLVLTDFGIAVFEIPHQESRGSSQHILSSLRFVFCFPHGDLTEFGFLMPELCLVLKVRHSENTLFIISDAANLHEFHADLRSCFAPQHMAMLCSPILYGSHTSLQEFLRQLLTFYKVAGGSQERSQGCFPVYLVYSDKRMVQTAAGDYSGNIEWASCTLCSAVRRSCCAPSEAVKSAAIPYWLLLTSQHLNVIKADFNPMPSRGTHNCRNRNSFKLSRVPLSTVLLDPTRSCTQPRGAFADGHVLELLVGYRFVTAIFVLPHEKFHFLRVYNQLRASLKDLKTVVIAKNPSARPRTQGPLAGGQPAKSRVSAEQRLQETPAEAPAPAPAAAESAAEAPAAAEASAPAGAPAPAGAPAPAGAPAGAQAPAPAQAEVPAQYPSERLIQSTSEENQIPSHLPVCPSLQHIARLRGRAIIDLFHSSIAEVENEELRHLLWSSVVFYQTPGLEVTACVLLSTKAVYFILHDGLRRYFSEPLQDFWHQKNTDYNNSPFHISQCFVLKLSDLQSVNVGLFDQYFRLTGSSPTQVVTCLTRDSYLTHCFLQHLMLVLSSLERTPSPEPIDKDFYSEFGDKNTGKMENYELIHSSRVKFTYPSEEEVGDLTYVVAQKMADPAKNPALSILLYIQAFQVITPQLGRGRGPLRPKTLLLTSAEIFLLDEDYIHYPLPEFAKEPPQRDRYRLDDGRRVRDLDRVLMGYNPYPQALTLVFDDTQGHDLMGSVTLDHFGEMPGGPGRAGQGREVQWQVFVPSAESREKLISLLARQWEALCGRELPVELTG

Structure (SMILES): c1ccc2c(c1)OCC(C1=NCCN1)O2 (stereo unspecified) [IDAZOXAN]
- Ki [1]: 1.26 µM

Structure (SMILES): CCC1(C2=NCCN2)Cc2ccccc2O1 (stereo unspecified) [EFAROXAN]
- IC50 [2]: > 300 µM
- Emax [3]: -13%
- Activity [4]: inactive

Structure (SMILES): Cc1cc(NCCC(C)C)cc(=O)n1CCC(C)C
- IC50 [2]: 128 µM
- Ki [5]: 52 µM
- Emax [3]: -17%

Structure (SMILES): N#CSc1ccc2oc(C3=NCCN3)cc2c1
- pKi [32]: 5.6

Structure (SMILES): C1CCC2N=C(NC(C3CC3)C3CC3)CC2C1 (stereo unspecified)
- pKi [32]: 4

Structure (SMILES): COC1=CCCC=C1C1=NCCN1
- pKi [33]: 8.53

Structure (SMILES): Cc1cc(NCCC(C)C)cc(=O)n1Cc1ccccc1
- IC50 [2]: > 300 µM
- Ki [5]: 110 µM
- Emax [3]: -2%

Structure (SMILES): CCC1(c2cnc[nH]2)Cc2ccccc2C1 [ATIPAMEZOLE]
- Ki [5]: 0.0012 µM

Structure (SMILES): Cc1cc(NCc2ccccc2)cc(=O)n1CCC(C)C
- IC50 [2]: > 300 µM
- Ki [5]: 27 µM
- Emax [3]: -10%

Structure (SMILES): NC1=NCC(COc2ccccc2Br)O1 (stereo unspecified)
- pKi [33]: 8.19

Structure (SMILES): CC1CCN=C1NC(C1CC1)C1CC1 (stereo unspecified)
- pKi [32]: 4

Now from value to compound, other results behind:

- Ki [5]: 1.2 µM
- Emax [3]: -3%
- Activity [18]: 100%
- Activity [19]: 96%
- Activity [20]: 94%
- Activity [21]: 100%
Structure (SMILES): CN1CCCCC1CCn1c2ccccc2c2ccccc21 (stereo unspecified)
- Activity [6]: 10%
- Activity [7]: 30%
- Activity [8]: 16%
- Activity [9]: 44%
- Activity [10]: 40%
- inhibition of growth at 70 µM [11]: 88%
- inhibition [12]: Dose-dependent effect
- IC50 [2]: 70 µM
- Activity [13]: 13%
- Activity [14]: 9%
- Activity [15]: 64%
- Activity [16]: 2%
- Activity [17]: 1%
- Activity [22]: Active
- Activity [23]: Active
- inhibition (INH) [24]: 45.75%
- inhibition (INH) [25]: 68.62%
- inhibition (INH) [26]: 72.21%
- inhibition (INH) [27]: 78.21%
- Ratio [28]: 0.877
- Ratio [29]: 0.511
- Ratio [30]: 0.617
- Ratio [31]: 0.688

- Ki [5]: 110 µM
- Emax [3]: -8%
Structure (SMILES): CCCCCNc1cc(C)n(Cc2ccccc2)c(=O)c1
- IC50 [2]: 140 µM

- Ki [5]: 11 µM
- Emax [3]: -6%
Structure (SMILES): CN1CCCCC1CCn1cnc2ccccc21 (stereo unspecified)
- IC50 [2]: > 300 µM

- Ki [5]: 62 µM
- Emax [3]: -18%
Structure (SMILES): CCCCCNc1cc(C)n(CCCCC)c(=O)c1
- IC50 [2]: 115 µM

- Ki [34]: 0.00562 µM
Structure (SMILES): CC(Oc1c(Cl)cccc1Cl)C1=NCCN1 (stereo unspecified) [LOFEXIDINE]

- Ki [5]: 58 µM
- Emax [3]: -6%
Structure (SMILES): Cc1cc(NCc2ccc(C(F)(F)F)cc2)cc(=O)n1CC(C)C
- IC50 [2]: 222 µM

— ChEMBL document CHEMBL3813687, “A combined ligand- and structure-based approach for the identification of rilmenidine-derived compounds which synergize the antitumor effects of doxorubicin” (Bioorg Med Chem, 2016)
